# US20230101743A1, “SUBSTITUTED TRIAZINE COMPOUNDS AND USES THEREOF” (MUSC FOUNDATION FOR RESEARCH DEVELOPMENT, priority 2020, published 2023)
# What was measured:
# [1] = system: total cholesterol levels within the medium; experiment: Total cholesterol quantification in culture medium of iPSC-derived hepatocytes; assay type: cell-based, human; conditions: 2 μg/mL, 24 hours; normalized with DMSO treated control
# Procedure: B. Human iPSC-derived hepatocytes were treated with 2 μg/mL of DL-1 for 24 hours. Total cholesterol levels within the medium were determined and normalized with DMSO treated control. Data are shown as mean±SEM of six replicates (n=6); * ** P<0.001.
# Cell Culture medium was harvested from human iPSC-derived hepatocytes (Day 20) before and after 24 hours of DL-1 (2 μg/mL) or vehicle treatment. Pre-drug and Post-drug medium were concentrated using Amico® Ultra 10K Centrifugal Filters (Sigma-Aldrich, #Z740171), and total cholesterol levels were determined using the colorimetric cholesterol assay kit (Sigma-Aldrich, #MAK043) following the manufactural instructions.
# [2] = system: apolipoprotein B (APOB-100); experiment: Secreted APOB ELISA in human iPSC-derived hepatocyte-like cells; assay type: cell-based
# Procedure: (§1) D. Human iPSC-derived hepatocytes were treated with DL-1 with concentrations ranging from 0.0325 to 12 or 48 μg/mL for 24 hours. Pre-drug and Post-drug medium were collected for analysis. Albumin and APOB levels were determined via ELISA assay. All secreted proteins were compared to non-treated cells. […] Data are shown as mean±SEM of four replicates (n=4); * p<0.01.
# E. Human iPSC-derived hepatocytes were treated with 2 μg/mL of DL-1 from 8 to 48 hours. Albumin, APOPA, and APOB level in the culture medium were determined via ELISA. All secreted proteins were compared to non-treated cells. In FIG. 5, accumulated APOB in the medium from different time-point was measured and normalized to albumin level. […]
# F. Twenty-one compounds that are structurally similar to DL-1 were tested with the concentration of 2 μg/mL in human iPSC-derived hepatocytes for 24 hours. Secreted APOB levels were determined and compared to the DMSO-treated group. […] Data is shown as mean±SEM of replicates (n=8) and as quantification value of each derivative. […]
# Differentiated human hepatocyte-like cells were treated with representative compounds of the invention (2 μg/mL) or equivalent amount of DMSO (0.5%) as the placebo group for 24 hours. […] The secreted level of apolipoprotein B (APOB-100), the core protein of LDL-C, were determined via enzyme-linked immunosorbent assay (ELISA). […]
# Albumin = experiment: Secreted albumin ELISA in iPSC-derived hepatocytes; assay type: cell-based, human
# Procedure: as §1
# E. Human iPSC-derived hepatocytes were treated with 2 μg/mL of DL-1 from 8 to 48 hours. Albumin, APOPA, and APOB level in the culture medium were determined via ELISA. All secreted proteins were compared to non-treated cells. In FIG. 5, accumulated APOB in the medium from different time-point was measured and normalized to albumin level. In FIG. 6, APOA, APOB, and albumin in the medium at the indicated times were compared to control. […] Data are shown as mean±SEM of four replicates (n=4); *p<0.05, **p<0.01.
# Human APOB level was determined via a commercial sandwich ELISA (3715-1H-6; Mabtech), and the signal was detected using the HRP-TMB system. The concentration of APOB was determined using a standard curve with four parameters logistic regression model. Human APOA level was determined via a commercial sandwich ELISA (3710-1H-6; Mabtech) following manufacture instruction. Human albumin levels in cell culture supernatants were measured by commercial ELISA (E88-129; Bethyl Laboratories) following manufactural instructions.
# [3] = 0.0325 to 12 or 48 μg/mL, 24 hours
smiles,measurement,setting,value
"Sc1nc(S)nc(Nc2ccc(Nc3ccccc3)cc2)n1 (racemic) [DL-1, 6-{[4-(phenylamino)phenyl]amino}-1,3,5-triazine-2,4-dithiol]",total cholesterol level in culture medium,[1],reduced total cholesterol level
same,"APOB level in culture medium, time course","[2]; 2 μg/mL, 8 to 48 hours",reduces APOB level in a time-dependent manner
same,"APOB secretion level, dose-response",[2]; [3],reduces APOB secretion level in a dose-response manner
same,"albumin level in culture medium, time course","Albumin; 2 μg/mL, 8 to 48 hours",without affecting albumin and APOA level
same,"albumin level, dose-response",Albumin; [3],without affecting albumin
